Laboratory results published in US20150190470A1, “COMBINATION THERAPY” (TETRALOGIC PHARMACEUTICALS CORPORATION, priority 2012, published 2015).

Key:
[1] = test system: Mouse renal carcinoma (RenCa) cells; test: Viability of RenCa cells (MTT) with birinapant plus TNFα or mouse GM-CSF; type: cell-based; settings: in combination with birinapant, TNFα 0.000001 to 100 ng/mL or mouse GM-CSF 0.001 to 10 ng/mL, 24 h
Method: Mouse renal carcinoma (RenCa) cells were seeded into 96-well plates at a density of 10,000 cells/well and allowed to adhere overnight. On the next day, birinapant alone or in combination with varying concentrations of TNFα (R&D systems) (0.000001 to 100 ng/mL) or mouse GM-CSF (R&D Systems) (0.001 to 10 ng/mL) were added. Following a 24 h incubation, viability was assessed by MTT assay.

[2] = test system: human peripheral blood mononuclear cells (PBMCs); test: Ex-vivo treatment of PBMCs with GM-CSF; cytokine concentration in culture supernatants by ELISA; type: cell-based
Method: Peripheral blood mononuclear cells (PBMC) were isolated from two healthy male donors using BD Vacutainer® CPT cell preparation tubes (Becton, Dickinson and Company, Franklin Lakes N.J. 07417, REF 362753) according to manufacturer's protocol. After isolation, mononuclear cell layer was removed from CPT tube and transferred to a sterile 15 mL centrifuge tube. Cells were washed by adding 10 mL of Dulbecco's Modified Eagle Medium (DMEM) containing 10% fetal bovine serum (FBS) to cells, tube was inverted several times to mix and cells were pelleted by centrifugation at 1500 RPM for 10 minutes. Following centrifugation, media was removed and cells were resuspended in DMEM containing 10% FBS to a concentration of 1×10^6 cells/mL. Cells were next seeded into 6-well dishes at 1×10^6 cells/mL in 2 mL/well. Following 2 hr incubation at 37° C./5% CO2, human recombinant GM-CSF (R&D Systems, Minneapolis Minn. 55413, Catalog # #215-GM) was added to cells at indicated concentrations. Following overnight incubation at 37° C./5% CO2, media was collected into sterile 15 mL centrifuge tubes and cells were removed by centrifugation at 1500 RPM for 10 minutes. Media was transferred to new, sterile tubes and frozen at −80° C. until use.
TNFα concentration in culture supernatants was determined by ELISA (BD OptEIA TNF kit II) according to manufacturer's recommendations. Absorbance values were analyzed using GraphPad Prism linear regression analysis and reported as pg/mL TNFα.
In a first extension of the preceding study, substantially the same experiment was carried out with PBMCs from two additional donors, Donors 3 and 4. In this first extension study, cells were treated with GM-CSF, GM-CSF+1.0 uM birinapant.
In a second extension study, substantially the same experiment was subsequently carried out with new PBMC culture supernatants from Donors 1, 3, and 4.

[3] = human, in vivo
Excerpt: In general, Compound 15 can be administered once, twice or three times per week for one to four weeks (or longer). In some situations a treatment interval may be followed by a rest interval. A suitable rest interval includes but is not limited to one week. […] It should be understood that the “on” weeks are consecutive weeks, i.e., two consecutive weeks on drug, three consecutive weeks on drug, and four consecutive weeks (or more) on drug.

[4] = test system: MDA-MB-231 cells (human breast cancer), Smac mimetic resistant variant; test: Viability of MDA-MB-231 cells (MTT) with PBMC culture supernatants and Compound 15; type: cell-based; settings: 1 μM Compound 15 with supernatant of 1 ng/mL GM-CSF-treated Donor 1 PBMC culture, 24 hr, FIG. 3(a)
Method: MDA-MB-231 cells (human breast cancer) were seeded into 96-well plates at a density of 10,000 cells/well and allowed to adhere overnight. Next day, culture supernatants from untreated Donor 1 PBMC culture or 1 ng/mL GM-CSF-treated Donor 1 PBMC culture was added to MDA-MB-231 cells in the presence or absence of 1 μM Compound 15, 1 μM Compound 15 plus TNFα neutralizing antibody (R&D Systems #MAB610, 10 μg/mL), 1 μM Compound 15 plus TRAIL neutralizing antibodies (R&D Systems #374-DR and 631-T2, 100 ng/ml each) or 1 μM Compound 15 plus both TNFα and TRAIL neutralizing antibodies. All antibodies were tested in the absence of Compound 15 as control. Viability of MDA-MB-231 cells was measured following 24 hr incubation at 37° C./5% CO2 by MTT (3-(4,5-dimethylthiazol-2-yl)-2,5-diphenyltetrazolium bromide) assay substantially as described in Hansen, M. B., Nielsen, S. E., and Berg, K. (1989) J. Immunol. Methods 119, 203-210.
In an extension study, substantially the same experiment was carried out with culture supernatants from two additional donors, Donors 3 and 4, excluding treatment with the combination of anti-TNFα and anti-TRAIL antibodies.

RenCa cells = test: Survival of BALB/c mice inoculated with RenCa cells; type: in vivo; settings: female BALB/c mice, RenCa cells on each flank; qdX5 each week for 4 weeks; birinapant 15 mg/Kg IP, mGM-CSF 10 mg IP
Method: 40 female BALB/c mice (10 per treatment group) were inoculated with 1×10^5 RenCa cells on each flank. The mice were subsequently treated qdX5 each week for 4 consecutive weeks with birinapant, mGM-CSF, birinapant and mGM-CSF, or a vehicle control. Each dose of birinapant was 15 mg/Kg IP and each dose of mGM-CSF was 10 mg IP.

Molecule: TNFα [reference compound]
- RenCa cell viability [1]: decreased in direct relation to the concentration of TNFα

Molecule: GM-CSF: Granulocyte macrophage colony-stimulating factor; human recombinant GM-CSF (R&D Systems) in Example 1
- expression and secretion of TNFα by PBMCs ([2]; Donors 1 and 2, overnight incubation with GM-CSF, ELISA, FIGS. 1(a),(b)): increased expression and secretion of TNFα
- expression and secretion of TNFα by PBMCs ([2]; first extension study, Donors 3 and 4, FIGS. 1(c),(d)): increased expression and secretion of TNFα
- expression and secretion of TNFα by PBMCs ([2]; second extension study, new PBMC culture supernatants from Donors 1, 3 and 4, FIGS. 2(a)-(c)): increased expression and secretion of TNFα
- RenCa cell viability [1]: unaffected

Molecule: CC[C@H](NC(=O)[C@H](C)NC)C(=O)N1C[C@@H](O)C[C@H]1Cc1c(-c2[nH]c3cc(F)ccc3c2C[C@@H]2C[C@H](O)CN2C(=O)[C@H](CC)NC(=O)[C@H](C)NC)[nH]c2cc(F)ccc12 [Compound 15, N-{1S-[2R-(6,6′-Difluoro-3′-{4S-hydroxy-1-[2S-(2S-methylamino-propionylamino)-butyryl]-pyrrolidin-2R-ylmethyl}-1H,1′H-[2,2′]biindolyl-3-ylmethyl)-4S-hydroxy-pyrrolidine-1-carbonyl]-propyl}-2S-methylamino-propionamide]
- half-life in the patient [3]: long half-life
- viability of MDA-MB-231 cells / induction of apoptosis [4]: sensitization of MDA-MB-231 Smac mimetic resistant variant to Compound 15
- time to which 50% of mice survived (RenCa cells): approximately 40 days

B1: mGM-CSF: mouse GM-CSF (R&D Systems) (protein, UniProt P01587 18-141, looked up)
Granulocyte-macrophage …: APTRSPITVTRPWKHVEAIKEALNLLDDMPVTLNEEVEVVSNEFSFKKLTCVQTRLKIFEQGLRGNFTKLKGALNMTASYYQTYCPPTPETDCETQVTTYADFIDSLKTFLTDIPFECKKPGQK
- time to which 50% of mice survived (RenCa cells): approximately 30 days
